pKd: −log10 of the molar value. Entries after “also recorded” stand apart in the source; their conditions may differ. Where a name gives a salt, the structure may show the parent alone. Read-outs that look alike come from different tables or passages of the source.

Assay [1] deals with alpha7 receptor (high affinity alpha-bungarotoxin binding, rat brain membranes) (Rattus norvegicus, UniProt Q05941). In words: biochemical.
In assay [2] the target is T1, rat alpha7 receptor (Rattus norvegicus, UniProt Q05941). Description: cell-based. The protocol: FIG. 13A. Effects of chronic injections of DMXB or nicotine on high affinity [^3 H]ACh or [^125 I]α-bungarotoxin (BTX) binding in rat neocortices. Adult male rats were injected with saline vehicle, 1 mg/kg DMXB or 0.2 mg/kg nicotine (NIC) (IP) daily for 2 weeks. At that time, neocortices were removed and assayed for high affinity [^3 H]ACh or [^125 I]α-bungarotoxin binding as described in the text. […] Responses of rat α7 ACHR to 3-CA, 2-MeOCA and 4-MeOCA. Concentration-response relationships for the peak agonist activated currents of oocytes injected with RNA coding for the rat α7 subunit. All responses were initially measured relative to the individual oocyte-response to 500 μM ACh, applied 5 min prior to drug-application. Responses were normalized relative to the maximum response obtainable with ACh so that a response of 1 represents full efficacy. The ratio of 500 μM ACh control response to ACh maximum was taken from Papke et al., 1997.
(§1) Oocytes were prepared and recordings made as described previously (de Fiebre, et al., 1995). Frogs were anesthetized by submersion in 0.1% (3)-aminobenzoic acid ethyl ester and several lobes of the ovary surgically removed through a small incision in the abdomen wall. Oocytes were freed from the follicle cells by treatment with collagenase (in calcium-free Barth's solution: 88 mM NaCl, 1 mM KCl, 15 mM Hepes pH 7.6, 0.33 mM MgSO4, 0.1 mg/ml gentamicin sulfate) for 2 hr at room temperature and Stage 5 oocytes were isolated. Oocytes were rinsed and stored at 18° C. in Barth's saline (88 mM NaCl, 1 mM KCl, 15 mM Hepes pH 7.6, 0.3 mM Ca(NO3)2, 0.41 mM CaCl2, 0.82 mM MgSO4, 0.1 mg/ml gentamicin sulfate) before and after microinjection with RNA. Microinjection was conducted with a Drummond Scientific "Nanoject Variable" automatic injector. Oocytes were injected with a 50 nl solution of specified rat nicotinic subunit mRNA species (2-10 mg/ml; derived from the cDNA containing HIP 306 plasmid kindly provided by Dr. Jim Boulter, Salk Institute) and incubated 2-7 days at 18° C. before electrophysiological recording. electrophysiological recordings, oocytes were perfused in a Warner Instruments RC-8 recording chamber with a perfusion solution containing 115 mM NaCl, 2.5 mM KCl, 10 mM Hepes pH 7.2, 1.8 mM CaCl2 and 1 μM atropine to block muscarinic responses. Perfusion was continuous at a rate of 10 ml/min. Drags were diluted in perfusion solution and applied using a solenoid valve to switch from perfusion to drug solutions. Current responses to drug administration were studied under two electrode voltage clamp at a holding potential of -70 mV using a Dagan Corp. TEV-200 voltage clamp connected to a 386-SX IBM computer using a TL-1 DMA interface (Axon Instruments). Micropipettes were filled with 3 M KCl and had resistances of 0.5-2 MOhms. Drug responses are analyzed with PClamp software (Axon Instruments). Oocytes with resting potentials of less than -30 mV were rejected.

In assay [3] the target is rat alpha4beta2 receptor (Rattus norvegicus, UniProt P09483+P12390). Description: Activation of alpha4beta2 receptors expressed in Xenopus oocytes. The format is cell-based. Conditions: for Emax: read-out: alpha4beta2 activation: response compared to maximal acetylcholine. The protocol:
FIG. 14A. Responses of α4β2 ACHR to 3-CA, 2-MeOCA or 4-MeOCA. Concentration-response relationships for the peak agonist activated currents of oocytes injected with RNA coding for rat α4β2 subunits. Responses are first expressed relative to the response to 10 μM ACh, applied 5 min before drug-application, then normalized to the maximum response obtainable with ACh so that a response of 1 represents full efficacy. The ratio between 10 μM ACh and maximum ACh response was determined in separate experiments.
as §1

In assay [4] the target is T1, rat alpha7 receptor. In words: cell-based. Also on record: Oocytes Antagonist: unit not given here. The protocol:
FIG. 13B. Effects of chronic injections of DMXB or nicotine on high affinity [^3 H]ACh or [^125 I]α-bungarotoxin (BTX) binding in rat neocortices. Adult male rats were injected with saline vehicle, 1 mg/kg DMXB or 0.2 mg/kg nicotine (NIC) (IP) daily for 2 weeks. At that time, neocortices were removed and assayed for high affinity [^3 H]ACh or [^125 I]α-bungarotoxin binding as described in the text. […] Responses of rat α7 AChR to 3-CA, 2-MeOCA and 4-MeOCA. […] All responses are expressed relative to the oocyte-response to 500 μM ACh applied 5 min prior to the experimental agonist application.
as §1
Antagonist properties subsequent to agonist activity were measured as a decrease in responsiveness to ACh applied 5 min after compound-application, normalized to ACh application instead of the anabaseine-derivative (FIG. 13A AND FIG. 13B).

Assay [5] concerns rat primary neocortical neurons. The class given is cell-based.
Assay [6] has as its system rat. In words: Focal ischemia infarct size in rats. As to conditions: 0.5 mg/kg IP mecamylamine with DMXB. The format is in vivo. How it is done:
FIG. 3. […] Rats received a 30 minute ischemia attack through tying of their common carotid; the amount of cell death (proportional to Infarct Size) was determined 24 hours later. Some animals received the benzylidene-anabaseine compound DMXB (1 mg/kg IP, salt weight) 1 hour before ligation, or the nicotinic antagonist mecamylamine (0.5 mg/kg IP), or both mecamylamine and DMXB, or DMXB 5 minutes after the ligation.
Male Sprague Dawley albino male rats (250-300 g) were anesthetized with a subcutaneous injection of ketamine, xylazine, and acepromazine (3:3:1 mixture, 0.7 cc/kg). Atropine (0.4 mg/kg IP) was injected several min prior to dissection of the carotid artery from the vagus. The internal carotid artery (ICA) was dissected until its proximal bifurcation into the terminal ICA and pterygopalatine arteries were clearly defined. The pterygopalatine artery was clipped parallel to and flush with the terminal ICA. Another clip was applied to the common carotid artery (CCA). The distal aspect of the external carotid artery (ECA) was coagulated and a straight aneurysm clip was applied 4 mm distal to the proximal ICA bifurcation. A suture was passed through the arteriotomized ECA stump into the ICA until the tip was resting against the aneurysm clip. The suture was removed 30 min later, with body temperature maintained between 36.5-37.5° C. The ECA stump was coagulated with bipolar electrocautery. Clips were removed and the wound was irrigated with saline prior to suturing.
Rats were euthanised 24 hours post-infarction and their brains removed and sectioned coronally (2 mm). Sections were placed into a 2% solution of 2,3,5-triphyenyl-tetrazolium cholide (Sigma Chemical Co., St. Louis. Mo.) for 20 minutes at 37° C. The sections were removed to a petri dish and covered with 10% formaldehyde solution. The outline function of the NIH Image computer program (version 1.47) was used to estimate the infarcted and total brain areas for each section. Infarct size was calculated as percent of total brain area.

Assay [7] concerns PC12 cells. The format is cell-based. Conditions: 10 μM (NGF 100 ng/ml); 4 days after removal of serum and NGF; mean±SEM; * p<0.05. The protocol:
PC12 cell-culture methods were modified from Greene and Tischler (1976). Cells were plated at 30-40% confluence and grown in Dulbecco's Modified Eagle Medium containing 10% heat-inactivated horse serum, 5% fetal bovine serum, 100 units/ml penicillin, 100 μg/ml streptomycin and 0.5 mM 1-glutamine. Cultures were maintained at 37° C., […] /6% CO2 and 90-92% humidity in culture plates pre-coated with poly-1lysine (10 g/L). Cultures were maintained for 7 days in serum-supplemented medium to which 100 ng/ml rat 2.5S NGF was added at day 1. On day 7, conditioned medium was replaced serum-free medium containing specified drugs. Four days later, cell density was estimated using the NIH Image program version 1.47 and number of neurite-expressing cells counted manually in blind fashion as described previously (Martin et al., 1994). A Nikon inverted microscope (100× magnification) was attached to a Mac II computer via a monochrome video camera (Cohu, Inc., San Diego, Calif.). Four random areas were counted per plate and there were 4 plates per treatment group, unless otherwise indicated. Neurites were defined as processes at least 2× the length of the perikaryon. To assess the reliability of the image analyses, a reticle was used for direct quantification of cells in the same view as the one analyzed in random samples.
PC12 cells were differentiated for 1 week with NGF. Drugs were administered for the 4 day interval after removal of serum and NGF. Neuites were counted and expressed as the mean±SEM of at least 3 plates/group.

Where [8] appears, read: Table 4, read-out: Receptor Binding α7.
[9] abbreviates: read-out: alpha7 activation: response, normalized to 500 μM acetylcholine (maximum response).
Where [10] appears, read: read-out: alpha7 binding: % Inhibition of high affinity alphabungarotoxin binding (1 nM).

rat alpha4beta2 receptor, sequence (P09483 31-630): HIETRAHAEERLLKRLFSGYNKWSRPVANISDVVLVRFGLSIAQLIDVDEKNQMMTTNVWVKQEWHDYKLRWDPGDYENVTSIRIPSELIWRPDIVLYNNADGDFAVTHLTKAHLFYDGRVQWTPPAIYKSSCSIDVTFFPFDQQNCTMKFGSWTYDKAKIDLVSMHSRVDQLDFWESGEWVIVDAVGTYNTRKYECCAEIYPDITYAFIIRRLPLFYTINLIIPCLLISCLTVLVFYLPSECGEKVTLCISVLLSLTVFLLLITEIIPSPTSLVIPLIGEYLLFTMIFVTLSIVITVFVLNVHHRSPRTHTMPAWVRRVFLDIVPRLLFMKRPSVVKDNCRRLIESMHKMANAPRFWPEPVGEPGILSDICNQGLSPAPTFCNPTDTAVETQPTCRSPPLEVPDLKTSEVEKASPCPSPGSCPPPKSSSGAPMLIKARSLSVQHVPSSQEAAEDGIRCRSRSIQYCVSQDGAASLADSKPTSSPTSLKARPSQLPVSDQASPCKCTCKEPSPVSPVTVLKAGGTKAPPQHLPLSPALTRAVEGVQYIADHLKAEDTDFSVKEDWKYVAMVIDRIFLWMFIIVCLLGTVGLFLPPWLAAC
rat alpha4beta2 receptor, sequence (P12390 25-500): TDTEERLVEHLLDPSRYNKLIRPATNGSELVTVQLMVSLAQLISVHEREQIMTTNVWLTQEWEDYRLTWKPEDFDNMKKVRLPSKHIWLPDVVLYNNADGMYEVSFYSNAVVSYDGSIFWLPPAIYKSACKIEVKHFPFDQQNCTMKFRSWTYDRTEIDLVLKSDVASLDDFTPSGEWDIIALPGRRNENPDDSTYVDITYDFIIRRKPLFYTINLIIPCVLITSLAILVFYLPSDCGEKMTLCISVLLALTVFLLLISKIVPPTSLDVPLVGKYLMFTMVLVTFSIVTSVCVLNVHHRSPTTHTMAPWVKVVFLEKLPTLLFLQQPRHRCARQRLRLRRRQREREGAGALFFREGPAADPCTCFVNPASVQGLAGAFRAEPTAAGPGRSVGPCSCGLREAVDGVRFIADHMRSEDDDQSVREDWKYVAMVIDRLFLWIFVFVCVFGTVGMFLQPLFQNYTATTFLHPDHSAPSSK
T1 sequence (Q05941 23-502): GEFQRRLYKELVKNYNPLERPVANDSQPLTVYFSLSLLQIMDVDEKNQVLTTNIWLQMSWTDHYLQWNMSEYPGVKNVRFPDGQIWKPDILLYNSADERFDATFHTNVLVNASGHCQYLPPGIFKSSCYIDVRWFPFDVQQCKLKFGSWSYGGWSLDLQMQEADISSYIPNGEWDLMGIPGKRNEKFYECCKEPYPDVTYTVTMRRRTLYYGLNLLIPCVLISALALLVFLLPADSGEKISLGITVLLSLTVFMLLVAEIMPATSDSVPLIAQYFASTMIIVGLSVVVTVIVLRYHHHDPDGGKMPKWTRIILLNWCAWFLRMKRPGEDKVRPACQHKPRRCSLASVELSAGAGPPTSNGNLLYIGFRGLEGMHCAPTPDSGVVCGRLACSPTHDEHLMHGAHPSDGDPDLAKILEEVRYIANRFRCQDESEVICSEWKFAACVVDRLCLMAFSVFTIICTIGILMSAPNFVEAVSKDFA
alpha7 receptor (high affinity alpha-bungarotoxin binding, rat brain membranes), sequence (Q05941 23-502): as above

On to `COc1ccc(C=C2CCCNC2c2cccnc2)c(OC)c1` (centres unmarked) [3(4-dimethoxy-benzylidene)anabasine], for which the inhibition at 1 µM in assay [1] (setting [8]) was 9%.
With `COc1ccc(C=C2CCCN=C2c2cccnc2)cc1` [GTS-2, 3-(4-methoxybenzylidene)anabaseine], the Emax was 7% in assay [2] (setting [9]) and 5% in assay [3].
For `Oc1ccc(C=C2CCCN=C2c2cccnc2)cc1` [GTS-7, 3-(4-hydroxybenzylidene)anabaseine], the inhibition at 1 µM in assay [1] (setting [8]) was 69.3%; in assay [1] (concentration of 1 μM (Table 1), read-out: alpha7 binding: % Inhibition of high affinity alphabungarotoxin binding (1 nM)) it was 69%. The Emax is 31% in assay [2] (setting [9]) and 2% in assay [3].
`Nc1ccc(C=C2CCCN=C2c2cccnc2)cc1` [GTS-13, 3-(4-aminobenzylidene)anabaseine]: the inhibition at 1 µM in assay [1] (read-out: Receptor Binding α7) and in assay [1] (setting [10]) was 93% throughout. Also, the Emax came out at 72% in assay [2] (read-out: Oocytes Agonist α7), 72% in assay [2] (setting [9]) and 5% in assay [3]. Besides, the “Oocytes Antagonist” value in assay [4] was “.69”.
Consider `COc1ccc(C=C2CCCN=C2c2cccnc2)c(O)c1` [GTS-51, 3-(2-hydroxy-4-methoxybenzylidene) anabaseine], for which the inhibition at 1 µM in assay [1] (setting [10]) was found to be 45%. Also, the Emax in assay [2] (read-out: Oocytes Agonist α7) came out at 29%; in assay [2] (setting [9]), 29%; in assay [3], 1%. The “Oocytes Antagonist” value in assay [4] is on record as “.26”.
Take `COc1cc(O)ccc1C=C1CCCN=C1c1cccnc1` [GTS-62, 3-(4-hydroxy-2-methoxybenzylidene)anabaseine]: the inhibition at 1 µM in assay [1] (read-out: Receptor Binding α7) and in assay [1] (setting [10]) was 84% each time. The Emax was found to be 43% in assay [2] (read-out: Oocytes Agonist α7), 41% in assay [2] (setting [9]) and 4% in assay [3]. For the same molecule, the “Oocytes Antagonist” value in assay [4] is given as “.35”.
For `COc1ccc(C(C)=C2CCCN=C2c2cccnc2)c(OC)c1` [GTS-80, 3-(2,4-dimethoxy-α-methyl-benzylidene)], the inhibition at 1 µM in assay [1] (setting [8]) was determined as 85%.
Still for that read-out and setting: in the case of `COc1cc(O)ccc1/C=C/C=C1\CCCN=C1c1cccnc1` [GTS-86, trans-3-(4-hydroxy-2-methoxycinnamylidene) anabaseine dihydrochloride] it was 90%; in that of `COc1ccc(/C=C/C=C2\CCCN=C2c2cccnc2)c(OC)c1` [GTS-87, trans-3-(2,4-dimethoxycinnamylidene) anabaseine dihydrochloride], 76%.
As for `C[C@]12N[C@H](Cc3ccccc31)c1ccccc12` [MK-801], the “protection against glutamate, concomitant (in words)” value in assay [5] (10 μM, with 1 mM glutamate) is given as “blocking effect”.
In the case of `CN(C)CCCOc1ccc(C=C2CCCN=C2c2cccnc2)cc1` [compound 15, 3(4-dimethylaminopropoxy-benzylidene)anabaseine], the inhibition at 1 µM in assay [1] (setting [8]) worked out at 87%. Besides, in assay [2] (Table 4, read-out: Oocytes Agonist α7), the Emax is 3%. In addition, in assay [4] (Table 4), the “Oocytes Antagonist” value is recorded as “.02”.
On to `C[N+](C)(C)CCCCCC[N+](C)(C)C` [hexamethonium], for which the “antagonist effect on DMXB-induced neuroprotection (in words)” value (“antagonist effect” below) in assay [5] (against glutamate cytotoxicity) was “sensitive”.
As to `CNC1(C)C2CCC(C2)C1(C)C` (centres unmarked) [mecamylamine, reference compound], the “block of neuroprotective action of DMXB (in words)” value in assay [6] was “blocked this neuroprotective action of DMXB; also recorded: blocking action”. Further, the “antagonist effect” value in assay [5] (against glutamate cytotoxicity) is on record as “sensitive”.
For the molecule `CCN1C[C@]2(COC(=O)c3ccccc3N3C(=O)C[C@H](C)C3=O)CC[C@H](OC)[C@@]34[C@@H]5C[C@H]6[C@H](OC)[C@@H]5[C@](O)(C[C@@H]6OC)[C@@](O)([C@@H](OC)[C@H]23)[C@@H]14` [methyllycaconitine], the “antagonist effect” value in assay [5] (against glutamate cytotoxicity) is on record as “sensitive”.
As for `CN1CCCC1c1cccnc1` (centres unmarked) [nicotine], the “protection by nicotine (in words)” value in assay [5] is recorded as “protected against neuronal loss”.
As for “(7'-methyl-3-(2,4-dimethoxybenzylidene)) anabaseine [7'-methyl-DMXB]”, the “alpha7 activation: response, normalized to 500 μM acetylcholine (maximum response)” value in assay [2] is on record as 0.32. Besides, in assay [3] (xenopus oocytes), the “alpha4beta2 activation: response compared to maximal acetylcholine” value is given as 0.02.
Turning to “NGF: nerve growth factor, 100 ng/ml (rat 2.5S NGF)”, the “Neurite Counts” value in assay [7] was 342 ± 56.
For the molecule α-bungarotoxin [reference compound], the pKd – broadly, the Kd on a negative log10 scale, so that one unit is a factor of ten – in assay [1] (read-out: Kd, Scatchard analysis (r=0.98; single site model)) is 8.72. In addition, in assay [5], the “antagonist effect” value is given as “sensitive”.

These data come from US5977144A (priority 1997, dated 1999).
